Experimental data taken from the kinase profiling compilation of Christmann-Franck et al. (2016).

Columns and labels:
Assay in all cases: KINOMEscan competition binding
Details in all cases: compound 10.0 µM
[1] = target: MAPKAPK2 (human) (UniProt P49137)
[2] = target: ULK3 (human) (UniProt Q6PHR2)
[3] = target: STK10 (human) (UniProt O94804)
[4] = target: CAMK4 (human) (UniProt Q16566)
[5] = target: NEK2 (human) (UniProt P51955)
[6] = target: RPS6KA6 KD2 (human) (UniProt Q9UK32)
[7] = target: PRKCE (human) (UniProt Q02156)
[8] = target: ANKK1 (human) (UniProt Q8NFD2)
Chain of ANKK1 (human) (Q8NFD2 whole entry, looked up): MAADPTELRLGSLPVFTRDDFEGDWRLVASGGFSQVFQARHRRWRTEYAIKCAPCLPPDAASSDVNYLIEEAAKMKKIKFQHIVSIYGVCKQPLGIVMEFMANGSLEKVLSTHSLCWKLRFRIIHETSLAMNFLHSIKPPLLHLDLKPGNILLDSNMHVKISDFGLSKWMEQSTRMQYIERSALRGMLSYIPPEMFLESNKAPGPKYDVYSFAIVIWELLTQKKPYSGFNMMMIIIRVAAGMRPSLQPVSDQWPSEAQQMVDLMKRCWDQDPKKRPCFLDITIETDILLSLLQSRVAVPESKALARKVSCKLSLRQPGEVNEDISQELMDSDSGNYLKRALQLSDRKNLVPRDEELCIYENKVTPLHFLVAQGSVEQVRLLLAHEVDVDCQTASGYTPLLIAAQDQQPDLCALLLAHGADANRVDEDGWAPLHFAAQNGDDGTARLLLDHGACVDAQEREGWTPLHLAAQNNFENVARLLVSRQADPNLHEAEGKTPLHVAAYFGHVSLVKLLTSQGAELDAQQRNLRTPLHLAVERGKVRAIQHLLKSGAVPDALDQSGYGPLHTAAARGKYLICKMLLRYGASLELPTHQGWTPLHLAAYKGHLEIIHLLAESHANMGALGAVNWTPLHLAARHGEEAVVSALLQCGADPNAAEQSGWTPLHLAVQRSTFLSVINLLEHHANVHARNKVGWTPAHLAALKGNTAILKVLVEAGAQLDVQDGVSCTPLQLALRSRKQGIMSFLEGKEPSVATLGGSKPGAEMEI

[9] = target: PRKG1 (human) (UniProt Q13976)
[10] = system: KIT (human), P10721 [D816V]
[11] = target: MAPKAPK5 (human) (UniProt Q8IW41)
Chain of MAPKAPK5 (human) (Q8IW41 whole entry, looked up): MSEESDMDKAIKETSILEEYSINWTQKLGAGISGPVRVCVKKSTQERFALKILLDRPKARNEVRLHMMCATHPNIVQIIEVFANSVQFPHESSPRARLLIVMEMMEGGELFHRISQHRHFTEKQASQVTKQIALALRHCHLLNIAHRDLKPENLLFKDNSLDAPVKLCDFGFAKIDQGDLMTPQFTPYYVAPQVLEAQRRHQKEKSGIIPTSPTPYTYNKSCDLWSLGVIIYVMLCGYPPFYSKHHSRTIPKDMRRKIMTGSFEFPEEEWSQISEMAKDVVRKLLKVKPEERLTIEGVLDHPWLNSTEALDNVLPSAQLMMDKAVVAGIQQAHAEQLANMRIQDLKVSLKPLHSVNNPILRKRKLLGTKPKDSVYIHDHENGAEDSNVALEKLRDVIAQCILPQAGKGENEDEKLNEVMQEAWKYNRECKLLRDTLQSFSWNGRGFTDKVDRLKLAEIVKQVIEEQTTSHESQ

[12] = target: MYLK4 (human) (UniProt Q86YV6)
[13] = target: PRKG2 (human) (UniProt Q13237)
[14] = target: AKT1 (human) (UniProt P31749)
[15] = target: LYN (human) (UniProt P07948)
[16] = target: RIPK4 (human) (UniProt P57078)
Chain of RIPK4 (human) (P57078 whole entry, looked up): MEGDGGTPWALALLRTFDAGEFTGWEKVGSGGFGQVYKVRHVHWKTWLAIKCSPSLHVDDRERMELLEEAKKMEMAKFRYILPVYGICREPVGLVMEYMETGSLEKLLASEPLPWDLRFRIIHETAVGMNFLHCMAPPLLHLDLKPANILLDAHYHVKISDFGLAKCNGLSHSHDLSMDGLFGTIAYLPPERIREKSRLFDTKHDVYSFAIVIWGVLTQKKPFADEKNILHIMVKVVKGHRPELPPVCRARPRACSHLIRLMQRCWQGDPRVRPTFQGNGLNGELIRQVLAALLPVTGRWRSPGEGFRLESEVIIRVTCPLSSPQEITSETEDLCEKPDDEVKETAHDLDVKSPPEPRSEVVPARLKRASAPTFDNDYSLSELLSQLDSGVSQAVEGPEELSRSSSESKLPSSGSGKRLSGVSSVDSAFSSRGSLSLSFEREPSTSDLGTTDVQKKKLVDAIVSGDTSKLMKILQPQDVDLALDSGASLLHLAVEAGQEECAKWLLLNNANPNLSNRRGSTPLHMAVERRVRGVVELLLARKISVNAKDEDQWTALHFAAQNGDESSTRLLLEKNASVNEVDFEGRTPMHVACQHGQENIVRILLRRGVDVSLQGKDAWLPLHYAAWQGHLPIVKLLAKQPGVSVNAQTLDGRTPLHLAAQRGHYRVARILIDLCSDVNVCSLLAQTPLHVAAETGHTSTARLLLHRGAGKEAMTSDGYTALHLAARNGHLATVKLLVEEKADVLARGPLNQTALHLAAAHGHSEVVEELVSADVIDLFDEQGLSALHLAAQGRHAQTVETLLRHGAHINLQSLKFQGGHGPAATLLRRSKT

[17] = target: LATS2 (human) (UniProt Q9NRM7)
[18] = target: FLT1 (human) (UniProt P17948)
[19] = target: TEK (human) (UniProt Q02763)
[20] = target: NTRK2 (human) (UniProt Q16620)
[21] = target: MAP3K12 (human) (UniProt Q12852)
[22] = target: ERBB4 (human) (UniProt Q15303)
[23] = target: EPHB2 (human) (UniProt P29323)
[24] = target: EPHA6 (human) (UniProt Q9UF33)
[25] = target: WEE1 (human) (UniProt P30291)
[26] = target: DCLK3 (human) (UniProt Q9C098)
[27] = target: PHKG1 (human) (UniProt Q16816)
Chain of PHKG1 (human) (Q16816 whole entry, looked up): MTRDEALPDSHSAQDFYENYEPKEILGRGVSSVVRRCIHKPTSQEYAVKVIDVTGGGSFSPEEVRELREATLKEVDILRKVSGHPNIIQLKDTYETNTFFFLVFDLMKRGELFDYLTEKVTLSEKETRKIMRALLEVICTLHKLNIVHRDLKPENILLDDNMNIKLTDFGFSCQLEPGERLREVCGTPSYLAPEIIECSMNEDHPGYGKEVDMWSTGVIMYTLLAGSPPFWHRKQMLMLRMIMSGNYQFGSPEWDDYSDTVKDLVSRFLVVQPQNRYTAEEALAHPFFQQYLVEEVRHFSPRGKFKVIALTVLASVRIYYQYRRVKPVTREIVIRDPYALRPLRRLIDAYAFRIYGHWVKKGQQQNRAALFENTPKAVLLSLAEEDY

[28] = target: PIM3 (human) (UniProt Q86V86)
[29] = target: MAP4K2 (human) (UniProt Q12851)
[30] = target: MAPK15 (human) (UniProt Q8TD08)
[31] = target: CAMKK1 (human) (UniProt Q8N5S9)
Chain of CAMKK1 (human) (Q8N5S9 whole entry, looked up): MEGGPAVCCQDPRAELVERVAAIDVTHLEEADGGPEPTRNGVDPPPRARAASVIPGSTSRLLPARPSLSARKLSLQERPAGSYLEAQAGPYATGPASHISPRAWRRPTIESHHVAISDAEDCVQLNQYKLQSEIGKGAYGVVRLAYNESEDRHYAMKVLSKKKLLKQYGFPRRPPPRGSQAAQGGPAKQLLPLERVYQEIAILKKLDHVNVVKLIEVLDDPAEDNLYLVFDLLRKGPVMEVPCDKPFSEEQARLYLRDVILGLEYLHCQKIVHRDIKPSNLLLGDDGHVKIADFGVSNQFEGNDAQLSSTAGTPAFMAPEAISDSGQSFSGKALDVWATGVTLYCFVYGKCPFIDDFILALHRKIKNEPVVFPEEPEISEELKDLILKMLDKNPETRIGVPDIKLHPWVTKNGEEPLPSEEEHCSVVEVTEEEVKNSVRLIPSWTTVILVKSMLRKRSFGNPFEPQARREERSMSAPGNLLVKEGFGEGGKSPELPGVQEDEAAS

[32] = target: RPS6KA2 KD1 (human) (UniProt Q15349)
[33] = target: DCLK2 (human) (UniProt Q8N568)
[34] = target: DAPK1 (human) (UniProt P53355)
[35] = target: ACVRL1 (human) (UniProt P37023)
[36] = target: CDK11B (human) (UniProt P21127)
[37] = target: NUAK1 (human) (UniProt O60285)
[38] = target: RPS6KA5 KD2 (human) (UniProt O75582)
[39] = target: RET (human) (UniProt P07949)
[40] = target: CAMK1D (human) (UniProt Q8IU85)

Chain of STK10 (human) (O94804 whole entry, looked up): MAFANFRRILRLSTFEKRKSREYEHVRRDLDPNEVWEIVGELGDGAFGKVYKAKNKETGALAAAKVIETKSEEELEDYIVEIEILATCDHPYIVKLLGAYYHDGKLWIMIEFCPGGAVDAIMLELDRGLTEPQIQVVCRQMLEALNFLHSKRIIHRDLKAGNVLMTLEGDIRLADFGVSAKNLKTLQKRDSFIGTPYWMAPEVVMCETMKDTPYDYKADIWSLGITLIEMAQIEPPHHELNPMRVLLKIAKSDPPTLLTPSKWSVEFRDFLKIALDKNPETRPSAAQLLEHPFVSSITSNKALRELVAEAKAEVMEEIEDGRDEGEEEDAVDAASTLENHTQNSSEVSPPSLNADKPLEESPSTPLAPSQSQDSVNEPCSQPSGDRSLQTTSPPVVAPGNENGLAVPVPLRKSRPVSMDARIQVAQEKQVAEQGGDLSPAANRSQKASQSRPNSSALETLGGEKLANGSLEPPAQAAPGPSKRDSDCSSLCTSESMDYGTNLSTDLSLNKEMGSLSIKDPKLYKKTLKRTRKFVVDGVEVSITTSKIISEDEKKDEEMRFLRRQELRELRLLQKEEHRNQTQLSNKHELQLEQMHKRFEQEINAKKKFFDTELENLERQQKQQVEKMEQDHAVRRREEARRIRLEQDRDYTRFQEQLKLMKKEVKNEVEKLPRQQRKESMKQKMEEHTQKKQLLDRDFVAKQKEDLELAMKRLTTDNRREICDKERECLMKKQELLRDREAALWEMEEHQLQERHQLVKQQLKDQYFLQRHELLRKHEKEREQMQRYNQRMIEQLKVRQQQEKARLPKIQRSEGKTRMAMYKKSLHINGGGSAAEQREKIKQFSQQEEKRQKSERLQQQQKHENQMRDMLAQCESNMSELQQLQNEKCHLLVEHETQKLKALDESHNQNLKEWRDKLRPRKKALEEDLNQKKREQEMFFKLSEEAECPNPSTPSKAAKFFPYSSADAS
Chain of MAPKAPK2 (human) (P49137 whole entry, looked up): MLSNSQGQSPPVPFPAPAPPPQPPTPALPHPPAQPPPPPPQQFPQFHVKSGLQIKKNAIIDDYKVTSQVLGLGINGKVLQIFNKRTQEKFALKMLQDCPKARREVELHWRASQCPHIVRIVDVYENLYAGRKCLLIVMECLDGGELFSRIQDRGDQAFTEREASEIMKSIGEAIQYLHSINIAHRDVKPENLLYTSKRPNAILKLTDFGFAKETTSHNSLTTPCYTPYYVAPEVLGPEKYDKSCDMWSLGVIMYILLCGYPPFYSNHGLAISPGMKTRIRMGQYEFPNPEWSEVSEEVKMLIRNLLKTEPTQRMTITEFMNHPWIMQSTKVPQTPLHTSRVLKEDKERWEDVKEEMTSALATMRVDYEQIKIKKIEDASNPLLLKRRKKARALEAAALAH

Row | Structure (SMILES) | kinase still bound, per cent of control [1] | kinase still bound, per cent of control [2] | kinase still bound, per cent of control [3] | kinase still bound, per cent of control [4] | kinase still bound, per cent of control [5] | kinase still bound, per cent of control [6] | kinase still bound, per cent of control [7] | kinase still bound, per cent of control [8] | kinase still bound, per cent of control [9] | kinase still bound, per cent of control [10] | kinase still bound, per cent of control [11] | kinase still bound, per cent of control [12] | kinase still bound, per cent of control [13] | kinase still bound, per cent of control [14] | kinase still bound, per cent of control [15] | kinase still bound, per cent of control [16] | kinase still bound, per cent of control [17] | kinase still bound, per cent of control [18] | kinase still bound, per cent of control [20] | kinase still bound, per cent of control [21] | also measured
1 | CCOc1cc2ncc(C#N)c(Nc3ccc(OCc4ccccn4)c(Cl)c3)c2cc1NC(=O)/C=C/CN(C)C | 89% | 100% | 0% | 100% | 12% | 97% | 100% | 100% | 94% | 70% | 89% | 86% | 92% | 98% | 34% | 77% | 100% | 95% | 95% | 36% | kinase still bound, per cent of control [19]: 56%; kinase still bound, per cent of control [22]: 0%; kinase still bound, per cent of control [23]: 86%; kinase still bound, per cent of control [24]: 99%; kinase still bound, per cent of control [25]: 57%; kinase still bound, per cent of control [26]: 100%; kinase still bound, per cent of control [27]: 92%; kinase still bound, per cent of control [28]: 100%; kinase still bound, per cent of control [29]: 5.2%; kinase still bound, per cent of control [30]: 100%; kinase still bound, per cent of control [31]: 100%; kinase still bound, per cent of control [32]: 88%; kinase still bound, per cent of control [33]: 100%; kinase still bound, per cent of control [34]: 98%; kinase still bound, per cent of control [35]: 100%; kinase still bound, per cent of control [36]: 97%; kinase still bound, per cent of control [37]: 61%; kinase still bound, per cent of control [38]: 77%
2 | CC[C@@H]1C(=O)N(C)c2cnc(Nc3ccc(C(=O)NC4CCN(C)CC4)cc3OC)nc2N1C1CCCC1 | 100% | 100% | 100% | 100% | 17% | 8.3% | 100% | 100% | 100% | 100% | 100% | 100% | 100% | 100% | 100% | 100% | 100% | 100% | 100% | 100% | kinase still bound, per cent of control [19]: 100%; kinase still bound, per cent of control [22]: 100%; kinase still bound, per cent of control [23]: 100%; kinase still bound, per cent of control [24]: 100%; kinase still bound, per cent of control [25]: 100%; kinase still bound, per cent of control [26]: 100%; kinase still bound, per cent of control [27]: 100%; kinase still bound, per cent of control [28]: 100%; kinase still bound, per cent of control [29]: 100%; kinase still bound, per cent of control [30]: 100%; kinase still bound, per cent of control [31]: 1.9%; kinase still bound, per cent of control [32]: 100%; kinase still bound, per cent of control [33]: 13%; kinase still bound, per cent of control [39]: 100%; kinase still bound, per cent of control [34]: 5.4%; kinase still bound, per cent of control [35]: 100%; kinase still bound, per cent of control [36]: 100%; kinase still bound, per cent of control [37]: 100%; kinase still bound, per cent of control [38]: 14%
3 | N#Cc1c(NC(=O)c2cccc3ccccc23)sc2c1CCCC2 | 93% | 94% | 67% | 100% | 65% | 77% | 100% | 78% | 88% | 97% | 100% | 98% | 86% | 94% | 78% | 96% | 75% | 87% | 100% | 79% | kinase still bound, per cent of control [40]: 85%; kinase still bound, per cent of control [22]: 100%; kinase still bound, per cent of control [23]: 75%; kinase still bound, per cent of control [24]: 94%; kinase still bound, per cent of control [25]: 64%; kinase still bound, per cent of control [26]: 100%; kinase still bound, per cent of control [27]: 100%; kinase still bound, per cent of control [28]: 100%; kinase still bound, per cent of control [29]: 100%; kinase still bound, per cent of control [30]: 64%; kinase still bound, per cent of control [31]: 91%; kinase still bound, per cent of control [32]: 93%; kinase still bound, per cent of control [33]: 100%; kinase still bound, per cent of control [39]: 94%; kinase still bound, per cent of control [34]: 85%; kinase still bound, per cent of control [35]: 100%; kinase still bound, per cent of control [36]: 95%; kinase still bound, per cent of control [37]: 77%; kinase still bound, per cent of control [38]: 95%
